Measurements taken from patent US20050004044A1, “Use of orsaponin [3beta, 16beta, 17 alpha-trihydroxycholost-5-en-22-one 16-0-(2-0-4-methoxybenzoyl-beta-D-xylopyranosyl)-(1->3)-(2-0-acetyl-alpha-L-arabinopyranoside)] or OSW-1 and its derivatives for cancer therapeutics” (priority 2003, published 2005).

Experiments:
HL-60 cells [1] = experiment: MTT cell growth inhibition, HL-60; assay type: cell-based; settings: Homo sapiens, HL-60, 72 hours
Experimental: (§1) FIG. 2. Effect of Orsaponin (OSW-1) on cell growth in two human cancer cell lines including a leukemia and a lymphoma cell line. HL-60 (leukemia) and Raji cells (lymphoma) in exponentially growing phase were treated with the indicated concentrations of OSW-1 for 72 hours. Cell growth inhibition was measured by MTT assay.
(§2) Cells and Cell Lines. Various cancer cell lines were used including the human leukemia cell lines HL-60 and ML-1 cells; human lymphoma cell line Raji; human pancreatic cancer cells AsPC-1; and human ovarian cancer cells SKOV3; human colon cancer cells HCT116; as well as isolated CLL cells from patients; and lymphocytes from normal donors. Cells were grown and maintained as per protocols known in the art using appropriate cell culture media and supplements.
(§3) 1. MTT Assays. For these assays either cancer cell lines were used. Alternatively, mononuclear cells from peripheral blood samples of CLL patients or normal donors were separated by Ficoll Hipaque fractionation and resuspended in DMEM complete medium. […] After the indicated number of days (usually 3 days or 72 hours) of exposure to OSW-1, cell survival was assessed by the addition of the MTT dye to the wells. […] Survival of cells under orsaponin treatment was evaluated as a percentage of control cell growth. […]

Raji cells (lymphoma) = experiment: MTT cell growth inhibition, Raji; assay type: cell-based, human; settings: 72 h
Experimental: as §1, §2
1. MTT Assays. For these assays either cancer cell lines were used. […] After the indicated number of days (usually 3 days or 72 hours) of exposure to OSW-1, cell survival was assessed by the addition of the MTT dye to the wells. […] Survival of cells under orsaponin treatment was evaluated as a percentage of control cell growth. […]
Anticancer activities of Orsaponin and 17-deoxyorsaponin were examined in human leukemia cells (ML-1) and human lymphoma cells (Raji). Cells were incubated with various concentrations of Orsaponin and 17-deoxyorsaponin for 72 h, and cell growth inhibition was measured by MTT assay.

[2] = tested on: ovarian cancer SKOV3 cells; experiment: MTT cell growth inhibition, SKOV3; assay type: cell-based; settings: Homo sapiens, SK-OV-3, SKOV3, 72 h
Experimental: FIG. 5. Effect of Orsaponin (OSW-1) on cell growth in human ovarian cancer cells (SKOV3). Human ovarian cancer SKOV3 cells were treated with the indicated concentrations of OSW-1 for 72 h. Cell growth inhibition was measured by the MTT assay. The IC50 value is approximately 0.2 nM under the experimental conditions.
as §3
OSW-1 Inhibits Growth of Ovarian Cancer Cells. […] Human ovarian cancer SKOV3 cells were treated with 0-10 nM OSW-1 for 72 h and cell growth inhibition was measured by the MTT assay.
The effect of 17-deoxyorsaponin in human ovarian cancer cells was determined. […] Cell growth inhibition was measured by MTT assay (FIG. 17). […] ML-1 leukemia cells were incubated with various concentrations of 17-deoxyorsaponin for 72 h and cell growth inhibition was measured using the MTT assay (FIG. 18).

[3] = tested on: HCT116 p53+/+ colon cancer cells; experiment: Colony formation assay, HCT116 p53+/+; assay type: cell-based, human
Experimental: FIG. 6. Effect of OSW-1 on cell survival in human colon carcinoma cells. Human colon cancer cells with wild-type p53 (HCT116 p53+/+) and p53-null (HCT116 p53−/−) were treated with the indicated concentrations of OSW-1, and cell survival was measured by colony formation assay.
OSW-1 Inhibits Growth of Human Colon Cancer Cells. […] The HCT116 colon cancer cells with wild-type p53 (p53+/+) and p53-null (p53−/−) were treated with the various concentrations of orsaponin (OSW-1), and cell survival was measured by colony formation assay.

primary CLL cells = experiment: cells; assay type: cell-based
Experimental: FIG. 7. Effect of Orsaponin (OSW-1) on cell survival in primary human leukemia cells isolated from patients with chronic lymphocytic leukemia (CLL). Freshly isolated primary CLL cells were incubated with the indicated concentrations of OSW-1 for 72 hours in vitro. Cell viability was measured by MTT assay. […] Data from representative experiments with CLL cells from three different patients are shown. A total of 23 CLL blood samples were tested for sensitivity to OSW-1 in the same fashion.
1. MTT Assays. For these assays either cancer cell lines were used. Alternatively, mononuclear cells from peripheral blood samples of CLL patients or normal donors were separated by Ficoll Hipaque fractionation and resuspended in DMEM complete medium. Malignant cells from various human cell lines (usually at 5×10^4 cells/ml) or mononuclear cells from peripheral blood of leukemia patients and healthy donors (1×10^6 cells/ml) were incubated in either αMEM or RPMI 1640 with or without various concentrations of OSW-1 in the range of 0-10 nM. Each experimental condition was done in triplicate. After the indicated number of days (usually 3 days or 72 hours) of exposure to OSW-1, cell survival was assessed by the addition of the MTT dye to the wells. The MTT dye changes its color depending on the presence of live cells in the well. Survival of cells under orsaponin treatment was evaluated as a percentage of control cell growth. Alternatively, one can also use the dye trypan-blue which penetrates dead cells thereby allowing one to count live cells under the microscope and estimating percentage survival.
Reduction of Cell Viability in CLL-Patient-Derived Cells. […] Freshly isolated primary CLL cells were incubated with the 0-100 nM OSW-1 for 72 hours in vitro and cell viability was measured by the MTT assay.
Cytotoxic activity of 17-deoxyorsaponin was also assessed in a number of patient samples. Primary human leukemia cells isolated from 11 patients with chronic lymphocytic leukemia (CLL) were analyzed for cytotoxic activity of 17-deoxyorsaponin. […]

HL-60 cells [4] = experiment: Mitochondrial transmembrane potential (rhodamine-123), HL-60; assay type: cell-based, human; settings: HL-60, 0.5 nM
Experimental: FIG. 10. Effect of Orsaponin (OSW-1) on Mitochondrial transmembrane potential HL-60 cells. The parental HL-60 line and its mutant with mitochondrial respiration defect, clone C6F, were incubated with 0.5 nM OSW-1 for the indicated times. Change in mitochondrial transmembrane potential was measured by cytometry analysis, using rhodamine-123 as a potential-sensitive fluorescent dye.
3. Analysis of the Mitochondrial Transmembrane Potential. To evaluate the role of mitochondrial respiration in the cytotoxicity of OSW-1, changes in the potential of mitochondrial membrane were analyzed. Following the treatment of cells with OSW-1 for different time periods, cells were incubated with rhodamine-123 which is a potential-sensitive dye. Cytometric analysis was used to record changes in mitochondrial potential. […]
The effect of OSW-1 on mitochondrial transmembrane potential in HL-60 cells and C6F cells was also analyzed by incubating the cells with 0.5 nM OSW-1 for the 4, 16 and 24 hours. Change in mitochondrial transmembrane potential was measured by flow cytometry analysis, using rhodamine-123 as a potential-sensitive fluorescent dye and are depicted in FIG. 10.

[5] = tested on: cancer cells of pancreatic, ovarian, colon, and CLL origins; experiment: Cytotoxicity in cancer cells, summary statement; assay type: cell-based; settings: Homo sapiens, read-out: IC50, kills cancer cells
From the text: The results were also observed in vivo in mouse models of ovarian cancer where animal survival was improved, and tumor volume reductions were observed

COc1ccc(C(=O)OC2C(OC3C(O)COC(O[C@H]4C[C@H]5[C@@H]6CC=C7C[C@@H](O)CC[C@]7(C)[C@H]6CC[C@]5(C)[C@@]4(O)[C@H](C)C(=O)CCC(C)C)C3OC(C)=O)OCC(O)C2O)cc1 (stereo partly drawn) [OSW-1, 3β, 16β, 17 α-trihydroxycholost-5-en-22-one 16-O-(2-O-4-methoxybenzoyl-β-D-xylopyranosyl)-(1->3)-(2-O-acetyl-α-L-arabinopyranoside)]
IC50 (HL-60 cells [1]): < 0.5 nM | IC50 (Raji cells (lymphoma)): < 0.5 nM | IC50 [2]: ~0.2 nM | cell survival, colony formation [3]: effective in killing human colon cancer cells regardless of p53 expression status | IC50 (primary CLL cells; Homo sapiens, CLL cell, 72 h, primary CLL cells, 72 hours, MTT, mean of 23 patients, read-out: IC50, cell viability): 0.15 ± 0.26 nM | Selectivity Index (primary CLL cells; IC50 ratio of malignant/normal cells (CLL vs normal lymphocytes)): 23 | change in mitochondrial transmembrane potential (HL-60 cells [4]; 16-24 h): substantial loss of mitochondrial transmembrane potential | change in mitochondrial transmembrane potential (HL-60 cells [4]; 4 h): did not cause a significant change in mitochondrial transmembrane potential | IC50 [5]: < 1 nM
